Measured values from ChEMBL document CHEMBL1221322, “Design, synthesis, and biological evaluation of new monoamine reuptake inhibitors with potential therapeutic utility in depression and pain” (Bioorg Med Chem Lett, 2010).

Assays:
physchem = details: octanol/water
in vitro [1] = details: human, Caco-2
in vitro [2] = details: human, Caco-2; remark: listed apart in the source
[3] = Oral bioavailability in rat; type: ADME, organism-based; details: in vivo
[4] = Volume of distribution at steady state in rat; type: ADME, organism-based; details: in vivo, read-out: Vdss

SMILES | logD (physchem) | Papp B→A (in vitro [1]) [×10⁻⁶ cm/s] | Papp A→B (in vitro [2]) [×10⁻⁶ cm/s] | bioavailability [3] [%] | Vd [4] [L/kg]
CCCC1(C(=O)c2ccc3[nH]ncc3c2)CCCN1 (stereo not drawn) | 1 | 16 | 29 |  | 
CC(C)CC1(C(=O)c2ccc3[nH]ncc3c2)CCCN1 (stereo not drawn) | 1 | 20 | 32 |  | 
CC(C)(C)CCC1(C(=O)c2ccc3[nH]ncc3c2)CCCN1 (stereo not drawn) | 2.03 | 12 | 20 |  | 
CCCC1(C(=O)c2ccc3[nH]ccc3c2)CCCN1 (stereo not drawn) | 1.45 | 10 | 41 |  | 
O=C(c1ccc2[nH]ccc2c1)C1(Cc2ccccc2)CCNC1 (stereo not drawn) |  | 19 | 17 |  | 
CC(C)OCC1(C(=O)c2ccc(N)c(Cl)c2)CCCN1 (single isomer, unassigned; (+)) | 0.84 | 18 | 30 |  | 
CC(C)(C)CCC1(C(=O)c2cc(F)c3[nH]ccc3c2)CCNC1 (single isomer, unassigned; (+)) |  |  |  | 5 | 14
CC(C)(C)CCC1(C(=O)c2ccc(Cl)c(Cl)c2)CCNC1 (single isomer, unassigned; (+)) |  |  |  | 57 | 14.3
CNCC[C@H](Oc1cccc2ccccc12)c1cccs1 [DULOXETINE] |  |  |  | 22 | 20.9
